This is an account of results in patent US11186603B2, “Heparan sulfate glycomimetic compounds and their pharmaceutical and cosmeceutical uses” (VICTORIA LINK LIMITED, priority 2017, dated 2021).

Test [1] has as its system ND41001 (AD) fibroblast cell line. Briefly: NPC cholesterol activity: filipin staining, LSO ratio. Type of test: cell-based, human. As to conditions: 48 hours. The source says: (§1) Fibroblast cell lines derived from Alzheimer and Niemann-Pick Type C (NPC) patients and healthy controls were obtained from the […] (Camden, N.J., USA). Cell line GM03123 was derived from a NPC patient with two heterozygous mutations in the NPC1 gene. Cell line GM09503 was used as a healthy control for the NPC cell line. Cell line ND41001 was derived from a patient carrying a Presenilin 1 mutation with familial (early onset) Alzheimer's disease (AD). Cell line ND38530 was used as a healthy control for the AD cell line. Further details of the cell lines are available at the Cornell Cell Repository website (https://catalog.coriell.org/).
(§2) Cell culture work was carried out in sterile conditions in an Email Air Handling Class II Biological Safety Cabinet (AES Environmental Pty LTD, Australia). All cell lines were cultured in DMEM (10313-021, Life Technologies New Zealand) supplemented with 10% fetal calf serum (Thermo Fisher Scientific New Zealand), 1× GlutaMAX™ Supplement (stabilised L-glutamine, Gibco Life Technologies New Zealand), 100 units/mL penicillin and 100 units/mL streptomycin (Life Technologies New Zealand). Cell lines were maintained in or 75 cm^2 flasks (Corning, Invitro Technologies New Zealand) in a humidified incubator (Sanyo Electric Co. Ltd, Japan) at 37° C. and 5% CO2. Experimental cultures were carried out in the same media omitting the antibiotics to avoid any potential interaction with the compound being tested.
(§3) For experiments, cells were seeded at a density of 1.25×10^3 cells/mL in black, 96 well plates (Cell-carrier, Perkin Elmer, Scimed New Zealand) in a volume of 100 μL media and grown for 24 hours before treating. The media was then replaced with fresh media supplemented with the required treatment. Cell lines GM03123 and ND41001 were either left untreated, or treated with either 10 μM or 100 μM of the heparan sulphate compound dissolved in sterile deionised water (dH20), 10 μM suberoylanilide hydroxamic acid (SAHA) dissolved in DMSO, or 0.1% DMSO. The healthy control cell lines GM09503 and ND38530 were left untreated or treated with U18666A dissolved in sterile dH20 at a final concentration of 1 μg/mL. U18666A causes cholesterol accumulation in the cell and is therefore a positive control for the filipin stain. Cells were then grown for 48 hours.
(§4) Before fixing, cells were washed three times with 1× phosphate buffered saline (PBS). From this point all treatments and washes were undertaken on a rotating table at 45 revs per minute. Cells were fixed with 1.5% paraformaldehyde (PFA) in 1×PBS (Thermo Fisher Scientific New Zealand) for 20 minutes. Cells were then washed with 1×PBS for four minutes. This was repeated twice. The cells were then stained for 2 hours with 50 μg/mL Filipin dye (Filipin complex from Streptomyces filipinensis, Sigma Aldrich, Australia) protected from the light. With minimal light exposure, the cells were washed with 1×PBS for four minutes and this was repeated twice. Cells were left in 1×PBS for confocal microscopy. The filipin stained cells were imaged using a Perkin Elmer Opera™ high-throughput spinning disk confocal microscope using 405 nm laser and 20× water immersion objective. Perkin Elmer Acapella™ software was used for image analysis. In NPC cells cholesterol accumulates in organelles with the characteristics of late endosomes or early lysosomes. These can be described as lysosome-like storage organelles (LSO). Analysis of free cholesterol levels in the cells was carried out using a method designed for high throughput confocal images described by Pipalia et al., Automated microscopy screening for compounds that partially revert cholesterol accumulation in Niemann-Pick C cells, J. Lipid Res., 2006, 47(2): 284-301. A low fluorescence threshold was chosen which identified the total area occupied by cells and another higher threshold was chosen to determine the areas of bright filipin staining of cholesterol within the cell. […]

Test [2] concerns GM03123 (NPC) fibroblast cell line. Described as above. The format is cell-based, human. As to conditions: for LSO %: GM03123 (NPC), 48 hours.
Source text: as §1, §2, §3, §4

[3] abbreviates: 10 μM, LSO ratio treated/untreated x 100.

`O=C(CCCCCCCNC(=O)CCOCC(COCCC(=O)NCCCCCCCC(=O)NCCOCCOCCOCCC(=O)NCCCCCCOC1OC(COS(=O)(=O)[O-])C(OC2OC(COS(=O)(=O)[O-])C(OS(=O)(=O)[O-])C(OS(=O)(=O)[O-])C2OS(=O)(=O)[O-])C(OS(=O)(=O)[O-])C1OS(=O)(=O)[O-])(COCCC(=O)NCCCCCCCC(=O)NCCOCCOCCOCCC(=O)NCCCCCCOC1OC(COS(=O)(=O)[O-])C(OC2OC(COS(=O)(=O)[O-])C(OS(=O)(=O)[O-])C(OS(=O)(=O)[O-])C2OS(=O)(=O)[O-])C(OS(=O)(=O)[O-])C1OS(=O)(=O)[O-])COCCC(=O)NCCCCCCCC(=O)NCCOCCOCCOCCC(=O)NCCCCCCOC1OC(COS(=O)(=O)[O-])C(OC2OC(COS(=O)(=O)[O-])C(OS(=O)(=O)[O-])C(OS(=O)(=O)[O-])C2OS(=O)(=O)[O-])C(OS(=O)(=O)[O-])C1OS(=O)(=O)[O-])NCCOCCOCCOCCC(=O)NCCCCCCOC1OC(COS(=O)(=O)[O-])C(OC2OC(COS(=O)(=O)[O-])C(OS(=O)(=O)[O-])C(OS(=O)(=O)[O-])C2OS(=O)(=O)[O-])C(OS(=O)(=O)[O-])C1OS(=O)(=O)[O-].[Na+].[Na+].[Na+].[Na+].[Na+].[Na+].[Na+].[Na+].[Na+].[Na+].[Na+].[Na+].[Na+].[Na+].[Na+].[Na+].[Na+].[Na+].[Na+].[Na+].[Na+].[Na+].[Na+].[Na+].[Na+].[Na+].[Na+].[Na+]` (stereo not shown) [Compound 25a]: the LSO % was found to be 60.1% in test [1] (10 μM), 67.9% in test [1] (100 μM), 76.1% in test [2] (setting [3]) and 64.2% in test [2] (100 μM). Further, in test [2] (fibroblast cells derived from Niemann-Pick type C and Alzheimer's disease patients), the “effect on filipin (cholesterol) fluorescence (in words)” value is on record as “positive effect on filipin (cholesterol) fluorescence”.
`O=C(CCCCCCC(=O)Nc1ccccc1)NO` [SAHA, suberoylanilide hydroxamic acid, reference compound]: the LSO % in test [1] (10 μM) is 42.4%; in test [2] (setting [3]), 43.0%.
